Earlier results on one substance are cited in US20100249042A1, “COMPOSITIONS AND METHODS FOR TREATMENT OF EYELASHES AND EYEBROWS” (ProCyte Corporation, priority 2009, published 2010).

In data set [1] the test system is human hair follicles. The conditions noted are these: ex vivo; Pyo et al. 2007.
Data set [2] deals with Dermal papilla cells (DPCs). The conditions noted are these: in vitro; Pyo et al. 2007.

In the case of “L-alanyl-L-histidyl-L-lysine:copper(II) [AHK-Cu]”, the “elongation of human hair follicles” value in data set [1] was “stimulated”. Further, the “proliferation of DPCs” value in data set [2] is recorded as “stimulated”.
